Entries after “also recorded” stand apart in the source; their conditions may differ.
Key:
[1] = test system: Madin-Darby Canine Kidney (MDCK) cells; assay type: cell-based
Method: FIG. 19 depicts representative images of GSK3I-mediated proliferation in serum-starved MDCK cells. Cells were initially cultured in the presence of 10% fetal bovine serum (FBS) and then switched to serum-free media for 24 hours prior to the addition of 0.2% serum-containing media which included GSK3Is at the indicated concentrations in the presence of 10 μM EdU. Cells were cultured an additional 48 h prior to fixation and visualization of EdU-positive nuclei (green) via conjugation of AlexaFluor488 azide in a copper-catalyzed cycloaddition (“Click” reaction, Click-iT Edu, Life Technologies). Total nuclei were stained with DAPI (blue). NC, normal control or untreated cells cultured in the presence of 10% FBS throughout the experimental time course.
EdU-positive nuclei from imaged fields of MDCK cells cultured as described in FIG. 13 were quantified using ImageJ software (NIH) and graphed as the averaged percentile of the number of EdU-positive cells relative to the total number of DAPI-stained nuclei in each field. A minimum of four fields of cells for each experimental condition were included in this analysis. (* and ***, p<0.05 and 0.001, respectively, for statistically significant increases in EdU-positive nuclei relative to untreated, serum-starved controls).
Tideglusib was procured from Cayman Chemical Company and performed a dose curve analysis under serum starvation conditions with Madin-Darby Canine Kidney (MDCK) cells in parallel with a series of commercially-available GSK3 inhibitors to ascertain its relative proliferative potential under mitotically-suppressed conditions in this well-established mammalian epithelial cell line. In these experiments, MDCK cells were cultured under serum starvation conditions for 24 hours prior to culturing cells for 48 hours in the presence of GSK3 inhibitors and 10 μM EdU (5-ethynyl-2′-deoxyuridine), a nucleoside analog that permanently marks cells that have undergone DNA replication.

[2] = test system: Hes1 transcript in IMO-2B1 murine inner ear cell line; assay: Hes1 knockdown efficiency by RT-qPCR, transfected siHES1 molecules; assay type: cell-based; settings: IMO-2B1, RNAiMAX, 48 hours after transfection
Description: FIG. 27 depicts reverse transcription-quantitative polymerase chain reaction (RT-qPCR) results from comparative dose curve analyses of Hes1 knockdown efficiency relative to mock-treated controls in a murine inner ear cell line (IMO-2B1), using two distinct siHES1 molecules with conserved target sites among mammalian Hes1 transcripts. SiRNA molecules were transfected into sub-confluent wells of IMO-2B1, using a commercial transfection agent (RNAiMAX, ThermoFisher Sci.). Forty-eight hours after transfection, total RNA was isolated and subjected to RT-qPCR analyses, using primers against Hes1 and the house keeping gene GAPDH. Relative Hes1 levels were determined by the 2^−ΔΔCT method (See Livak and Schmittgen (2001) Methods 25(4):402-408, incorporated by reference in its entirety). The apparent potency of molecule #7 for depleting Hes1 transcript levels was considerably greater than that of molecule #1, as optimal knockdown using molecule #7 was observed using as little as 2 nM siRNA (relative to ˜20 nM required for molecule #1).

[3] = test system: organotypic cultures of murine OCs; assay: Hair cell counts in neomycin-damaged OC cultures treated with TIDE and/or siHES1 lipofection complexes; assay type: cell-based; settings: for Hair Cell Counts ± SEM, Mid-apical turn / Hair Cell Counts ± SEM, Middle Turn: neomycin 0.7 mM 24 h, 10.0 μM TIDE, siHES1 20 nM lipofection complexes (FIG. 22)
Method: (§1) FIG. 22 depicts hair cells (Myo7a+ cells) quantified from the mid-apical and middle regions of organotypic cultures of murine OCs following a 24 h exposure to neomycin (0.7 mM) and subsequent recovery in the presence or absence of the GSK3 inhibitor Tideglusib (TIDE) and/or siHES1 (20 nM) lipofection complexes (JetSI, Polyplus).
as §1, with “23” for “22”
as §1, with “25” for “22”, “mid-apical, middle,” for “mid-apical”, “mid-basal” for “middle”, “Polyplus). One set of NEO-ablated OCs were treated with TIDE then siHes1 in the presence of 2 ng/mL FGF-2 as a media supplement with the aim of potentially enhancing the effects of Tideglusib.” for “Polyplus).”
The protocol described above for BIO is used, substituting the addition of BIO for 10.0 μM Tideglusib (TIDE). A third treatment group is added, where Tideglusib is included in the culture medium after siHes1, parallel to the other protocols: on P4 or P5 (depending on whether there was an ototoxic insult to simulate hair cell loss) the control media is added with or without the inclusion of 10.0 μM TIDE; on P7 siHes1 is added in the presence of absence of TIDE; and on P9 10.0 μM Tideglusib is included in the media for a subset of cultures. On P11, all media is replaced with fresh media without any therapeutics. On P12, the tissues are fixed for immunolabeling. An example of comparative analyses from this treatment paradigm, following an exposure to the ototoxic aminoglycoside, NEO, is depicted in FIG. 22.
This experimental paradigm was again repeated adding additional treatment groups where FGF-2 was optionally included in the culture medium at 2 ng/mL at P5, P7, and P9 for a subset of cultures.

[4] = test system: neonatal murine utricular maculae; assay: BIO, siHes1 and GSI in neomycin-damaged utricle cultures; assay type: cell-based, CD1 mice; settings: NEO-ablated utricles; BIO 2.5 μM, 20 nM Hes1 siRNA, GSI 5 μM
Method: To assess whether BIO can enhance the therapeutic efficacy of Hes1 siRNA in regenerating HCs following a toxic insult, neonatal murine utricular tissues were exposed to neomycin (NEO) and then either left untreated or were treated with one or both of the therapeutic agents. After a total of 8 days in vitro, tissues were fixed and labeled with the HC marker, Myo7a. ###, p<0.001 difference in Myo7a-postive cells relative to untreated controls. *, **, and ***, p<0.05, 0.01, and 0.001, respectively, with respect to significant differences in the number of Myo7a-postive cells between treatment groups.
Organotypic cultures from murine utricular maculae (balance organ sensory epithelia) were cultured and then harvested on postnatal day 3 (P3) from CD1 mice. These explants were then cultured in appropriate media for twenty-four hours. […] All cultures were then maintained in media without either of the test agents for a final 24 h, after which tissues were fixed in 4% paraformaldehyde solution and subjected to immunolabeling with an antibody against the hair cell marker, myosin VIIa (Myo7a), and an appropriate secondary antibody for subsequent immunofluorescence-mediated quantification of HCs along the length of the cochlear spiral (FIGS. 14-17).

[5] = test system: postnatal (P3) murine (CD1) OC explants; assay: siHes1 NPs with Tideglusib in neomycin-ablated OC explants; assay type: cell-based
Method: Postnatal (P3) murine (CD1) OC explants were exposed to the ototoxic aminoglycoside, neomycin, for 24 h and then treated with 60 nM siHes1 NP alone; the GSK3 inhibitor, Tideglusib (TIDE), alone (2 μM); or a combination of 60 nM siHes1 NP with escalating doses of Tideglusib (0.5, 2, or 10 μM) for 6d prior to fixation and immunolabeling against the HC-specific marker, Myo7a. Middle turn as fixed reference among images shown.
NEO-ablated OCs were treated with a suboptimal (60 nM) dose of siHes1 NPs either alone or in combination with escalating doses of TIDE. […] The sustained release profile of siHes1 NPs mimics staged application of the two therapeutics.
Applicants hypothesized that the delayed, yet sustained, release of siHes1 from biocompatible PLGA NPs would recapitulate the therapeutic attributes of staged application of a GSK3 inhibitor and siRNA against Hes1 when the two drugs were co-administered. To test this hypothesis, a sub-maximal efficacious dose (60 nM) of siHes1 NPs with escalating doses (0.5, 2, and 10 μM) of the GSK3I, tideglusib, in order to have sufficient experimental margin were used to assess a regenerative dose-response profile in organotypic cultures of neomycin (NEO)—exposed organs of Corti (OCs). Using this paradigm, NEO-ablated OCs were subsequently cultured with siHes1 NPs alone or in combination with Tideglusib over the course of six days prior to fixation and immunohistological analyses.

[6] = test system: sensory epithelial region of postnatal day 3 OCs; assay: EdU-labeling of mitotically-active cells in postnatal organ of Corti; assay type: cell-based; settings: 0.5 or 2.0 μM, 72 hours, vs vehicle
Method: FIG. 21 depicts EdU-labeling of mitotically-active cells in the postnatal organ of Corti in response to Tideglusib treatment. Postnatal day 3 OCs were harvested and cultured in vitro for 24 hours prior to the addition of culture media containing 10 μM EdU in the presence of either vehicle alone (DMSO) or tideglusib (TIDE) at a final concentration of 0.5 or 2.0 μM. Organotypic cultures were cultured continuously in the presence of these agents for 72 hours prior to fixation and visualization of EdU-positive nuclei as described above. Images of the middle turn of the OC from each group are shown. Brackets denote the sensory epithelial region in each image.
A targeted pilot experiment was conducted in which postnatal OCs were cultured continuously for 72 hours in the presence of EdU and either tideglusib or vehicle alone to assess whether the GSK3 inhibitor was capable of inducing a mitotic response in the sensory epithelial region of the OC. […] Follow-up analyses will indicate whether this tideglusib-induced proliferative response in the OC involves supporting cells, hair cells, or both, using cell type-specific markers.

Cc1c[nH]c(-c2cnc(NCCNc3ccc(C#N)cn3)nc2-c2ccc(Cl)cc2Cl)n1 [CHIR-99021]
number of EdU-positive nuclei ([1]; 10 μM, relative to untreated serum-starved cells): statistically insignificant relative to untreated, serum-starved cells | mitotically-active cells (EdU-positive nuclei) ([1]; low-dose (0.1 μM), serum starvation): robust, statistically-significant increase in mitotically-active cells

Molecule 7: siRNA, human Hes1 mRNA nt 673-691, SEQ ID NO: 13 and 14 (chain 1 ACUGCAUGACCCAGAUCAA; chain 2 UUGAUCUGGGUCAUGCAGU; listed as RNA, chemistry not given here)
siRNA concentration for optimal Hes1 knockdown [2]: 2 nM

FGF-2: basic fibroblast growth factor used as media supplement
effect of FGF-2 media supplement on HC regeneration ([3]; 2 ng/mL FGF-2, NEO-ablated OCs, with or without TIDE then siHes1): did not elicit a therapeutic response on its own; also recorded: potentiated the therapeutic effects of TIDE/siHES1 treatment through the mid-basal turn of the OC

Molecule 1: siRNA, murine Hes1 mRNA nt 239-257, SEQ ID NO: 1 and 2 (chain 1 CAGCUGAUAUAAUGGAGAATT; chain 2 UUCUCCAUUAUAUCAGCUGTT; chemistry not given here)
siRNA concentration for optimal Hes1 knockdown [2]: ~20 nM

O=C1Nc2cc(Br)ccc2/C1=C1/Nc2ccccc2/C1=N\O [BIO, 6-bromoindirubin-3′-oxime]
HC numbers (Myo7a-positive cells) in striolar/extrastriolar region [4]: increased HC numbers within the striolar region | proliferative response (EdU-positive nuclei) ([1]; serum-starved MDCK, 48 h, across dose range tested (up to 10 μM)): reduced numbers of EdU-positive nuclie

O=c1sn(-c2cccc3ccccc23)c(=O)n1Cc1ccccc1 [TIDE, tideglusib]
siHes1 NP regenerative efficacy, middle turn ([5]; 10 μM Tideglusib with 60 nM siHes1 NPs, relative to siHes1 NPs alone): statistically-significant increases | siHes1 NP regenerative efficacy, basal turn ([5]; 2 and 10 μM Tideglusib with 60 nM siHes1 NPs, relative to siHes1 NPs alone): statistically-significant increases | HC numbers / densities with combined treatment ([5]; NEO-ablated OCs, 60 nM siHes1 NP plus Tideglusib 0.5, 2 or 10 μM, 6 d): concentration-dependent enhancement of siHes1 NP-induced hair cell (HC) regeneration | regenerative response (HC numbers) ([5]; Tideglusib alone (2 μM), NEO-ablated OCs): did not induce a statistically significant regenerative response | siHes1 NP regenerative efficacy, mid-apical region ([5]; Tideglusib with 60 nM siHes1 NPs vs siHes1 NPs alone): no statistically-significant differences between the treatment groups | Hair Cell Counts ± SEM, Mid-apical turn [3]: 9.1 ± 1.6 | Hair Cell Counts ± SEM, Middle Turn [3]: 2.8 ± 0.8 | mitotic response (EdU-positive nuclei) in sensory epithelial region [6]: greater incidence of EdU-positive nuclei; also recorded: markedly greater mitotic response in the sensory epithelial region

NC[C@@H]1O[C@H](O[C@H]2[C@@H](O)[C@H](O[C@@H]3[C@@H](O)[C@H](N)C[C@H](N)[C@H]3O[C@H]3O[C@H](CN)[C@@H](O)[C@H](O)[C@H]3N)O[C@@H]2CO)[C@H](N)[C@@H](O)[C@@H]1O [NEO alone, neomycin]
Hair Cell Counts ± SEM, Mid-apical turn [3]: 5.1 ± 1.1 | Hair Cell Counts ± SEM, Middle Turn [3]: 2.5 ± 0.8

C[C@H](NC(=O)Cc1cc(F)cc(F)c1)C(=O)N[C@@H]1C(=O)N(C)c2ccccc2-c2ccccc21 [GSI, deshydroxy LY 411575]
HC numbers (Myo7a-positive cells) in striolar/extrastriolar region [4]: increased HC numbers within the striolar region

[Cl-].[Li+] [LiC1, lithium chloride]
EdU-positive cells ([1]; 10 mM, relative to identical dose of sodium chloride): increased numbers of EdU-positive cells

Source: patent US11013752B2, “Combination therapies for inner ear sensory hair cell regeneration/replacement” (Hough Ear Institute, priority 2016, dated 2021)
